Patent publication US20230365546A1, “5-SUBSTITUTED INDOLE 3-AMIDE DERIVATIVES, PREPARATION METHOD AND USE THEREOF” (ORIGIANT PHARMACEUTICAL CO., LTD, priority 2020, published 2023)

Columns and labels:
RIPK1 = RIPK1 (Homo sapiens (Human), UniProt Q13546); experiment: In vitro kinase assay (Eurofins Kinase Profiler), IC50; type: biochemical; conditions: 0.001-10 μM, read-out: RIPK 1 (IC50)
Protocol: In vitro kinase assays were conducted using Kinase Profiler services provided by Eurofins. The experimental method was as follows: the small molecule compound to be tested (0.001-10 μM), the protein kinase to be tested were incubated with a buffer containing substrate, 10 mM magnesium acetate, and [γ-^33P-ATP], the reaction was started by adding Mg\TPmix, after incubation for a period of time at room temperature, a 3% phosphate solution was added to the buffer to stop the reaction. Subsequently, 10 μL of the reaction mixture was quantitatively pipetted onto P30 filter paper, which was washed three times with 75 mM phosphate solution and then once with methanol. The P30 filter paper was air-dried and scintillation fluid was added for scintillation counting.

HT-29 cells = experiment: Protection against programmed necrosis of HT-29 cells (TNF α/Smac mimetic/Z-VAD-FMK, CCK8); type: cell-based; conditions: Homo sapiens, TNF α/Smac mimetic/Z-VAD-FMK induced 24 h, CCK8, read-out: HT-29 (EC50)
Protocol: In vitro protection against programmed necrosis of HT-29 cells was conducted by ourselves.
DMEM medium was purchased from Gibco Inc., penicillin and streptomycin were purchased from HyClone Inc., TNF α was purchased from PeproTech Inc., Smac mimetic and Z-VAD-FMK were purchased from Selleck Inc., CCK8 was purchased from Medchem Express Inc.
HT-29 cells (colon cancer cells) were cultured in DMEM+10% FBS+Penicillin/Streptomycin medium. During the experiments, HT-29 cells in logarithmic growth phase were harvested, seeded in a 96-well plate at specific numbers per well (typically 8×10^3 cells/well of adherent cells) and cultured overnight in a 37° C., 5% CO2 cell culture incubator. The next day, the compounds to be tested were diluted with culture medium to the corresponding concentrations and added into the corresponding wells of a 96-well plate, with 3 replicate wells for each sample, and a Vehicle control group and a blank Control group containing only culture medium were set at the same time. […] The absorbance was measured at 495 nm wavelength using a microplate reader, and the protection rate of the drug on the cells necrosis was calculated according to the following formula:
Protection rate of cell necrosis=[(X−C0)/(C−C0)]×100%
Wherein, C, C0, and X represent the mean absorbance values of the Vehicle control group, Blank control group and Drug treatment group, respectively.

Chain of RIPK1 (Q13546 whole entry): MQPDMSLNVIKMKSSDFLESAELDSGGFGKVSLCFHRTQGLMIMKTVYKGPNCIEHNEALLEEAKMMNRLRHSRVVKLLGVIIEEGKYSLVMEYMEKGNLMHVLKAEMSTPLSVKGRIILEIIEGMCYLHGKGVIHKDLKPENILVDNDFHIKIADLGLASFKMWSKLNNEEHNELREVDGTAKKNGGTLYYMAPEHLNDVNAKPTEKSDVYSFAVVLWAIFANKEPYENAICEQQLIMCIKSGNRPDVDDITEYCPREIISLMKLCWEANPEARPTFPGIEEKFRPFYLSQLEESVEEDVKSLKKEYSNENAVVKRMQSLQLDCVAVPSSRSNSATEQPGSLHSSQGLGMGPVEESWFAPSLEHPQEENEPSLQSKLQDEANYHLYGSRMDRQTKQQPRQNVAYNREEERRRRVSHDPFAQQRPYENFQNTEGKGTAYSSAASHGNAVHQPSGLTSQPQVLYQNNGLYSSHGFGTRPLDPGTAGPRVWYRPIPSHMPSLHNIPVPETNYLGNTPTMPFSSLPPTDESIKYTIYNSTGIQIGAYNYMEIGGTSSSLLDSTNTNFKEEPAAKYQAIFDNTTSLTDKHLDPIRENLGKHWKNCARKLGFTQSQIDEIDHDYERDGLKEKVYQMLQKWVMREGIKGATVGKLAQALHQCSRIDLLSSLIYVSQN

| Compound | IC50 (RIPK1) [nM] | EC50 (HT-29 cells) [nM] |
| --- | --- | --- |
| O=C(NCc1cccs1)c1c[nH]c2ccc(-c3ccc4nc(NC(=O)C5CC5)sc4c3)cc12 [Compound 18] | 10 to 100 | 1 to 10 |
| O=C(NCc1ccc(F)cc1F)c1c[nH]c2ccc(-c3ccc4nc(NC(=O)C5CC5)sc4c3)cc12 [Compound 9] | 10 to 100 | 1 to 10 |
| C[C@H](NC(=O)c1c[nH]c2ccc(-c3ccc4nc(NC(=O)C(F)(F)F)sc4c3)cc12)c1cccc(F)c1 [Compound 52] | 100 to 1000 | 10 to 100 |
| Cn1cc(C(=O)NCc2ccc(F)cc2)c2cc(-c3ccc4nc(NC(=O)C5CC5)sc4c3)ccc21 [Compound 79] | 100 to 1000 | 10 to 100 |
| CC(C)n1cc(C(=O)NCc2cc(F)ccc2F)c2cc(-c3ccc4nc(NC(=O)C5CC5)sc4c3)ccc21 [Compound 56] | 10 to 100 | 1 to 10 |
| C[C@H](NC(=O)c1c[nH]c2ncc(-c3ccc(N4CCOCC4)cc3)cc12)c1cccc(F)c1 [Compound 76] | 100 to 1000 | 100 to 1000 |
| C[C@@H](NC(=O)c1c[nH]c2ccc(-c3ccc4nc(NC(=O)C5CC5)sc4c3)cc12)c1cccc(F)c1 [Compound 35] | 100 to 1000 | 10 to 100 |
| Cc1noc(C)c1CNC(=O)c1c[nH]c2ccc(-c3ccc4nc(NC(=O)C5CC5)sc4c3)cc12 [Compound 84] | 100 to 1000 | 100 to 1000 |
| O=C(NCc1cccc2ccccc12)c1c[nH]c2ccc(-c3ccc4nc(NC(=O)C5CC5)sc4c3)cc12 [Compound 14] | ≥ 1000 | ≥ 1000 |
| CC[C@H](NC(=O)c1cn(CC)c2ccc(-c3ccn4nc(NC(=O)C5CC5)nc4c3)cc12)c1ccc(F)cc1 [Compound 199] | 1 to 10 | < 1 |
| CCCn1cc(C(=O)N[C@@H](C)c2cccc(F)c2)c2cc(-c3ccn4nc(NC(=O)C5CC5)nc4c3)ccc21 [Compound 151] | 1 to 10 | < 1 |
| COCCn1cc(C(=O)N[C@@H](C)c2cccc(F)c2)c2cc(-c3ccc4c(NC(=O)C5CC5)n[nH]c4c3)ccc21 [Compound 116] | 1 to 10 | 10 to 100 |
| O=C(NCc1cccc(OC(F)(F)F)c1)c1c[nH]c2ccc(-c3ccc4nc(NC(=O)C5CC5)sc4c3)cc12 [Compound 19] | 10 to 100 | 1 to 10 |
| COc1cc(CN2CCN(C(=O)c3cn(C)c4ccc(-c5ccc6nc(NC(=O)C7CC7)sc6c5)cc34)CC2)cc(OC)c1OC [Compound 67] | ≥ 1000 | ≥ 1000 |
| COc1cccc([C@@H](C)NC(=O)c2c[nH]c3ccc(-c4ccc5nc(NC(=O)C6CC6)sc5c4)cc23)c1 [Compound 39] | 100 to 1000 | 10 to 100 |
| Cn1cc(C(=O)N2CCN(Cc3ccc4c(c3)OCO4)CC2)c2cc(-c3ccc4nc(NC(=O)C5CC5)sc4c3)ccc21 [Compound 66] | ≥ 1000 | ≥ 1000 |
| CC(C)n1cc(C(=O)N[C@@H](C)c2cccc(F)c2)c2cc(-c3ccn4nc(NC(=O)C5CC5)nc4c3)ccc21 [Compound 150] | 10 to 100 | 1 to 10 |
| C[C@H](NC(=O)c1c[nH]c2ccc(-c3ccc4nc(NC(=O)C5CCN(C)CC5)sc4c3)cc12)c1cccc(F)c1 [Compound 53] | 100 to 1000 | 100 to 1000 |
| O=C(NCc1ccc(C(F)(F)F)cc1)c1c[nH]c2ccc(-c3ccc4nc(NC(=O)C5CC5)sc4c3)cc12 [Compound 16] | 10 to 100 | 10 to 100 |
| C[C@H](NC(=O)c1c[nH]c2ccc(-c3ccc4nc(NC(=O)C5CCOCC5)sc4c3)cc12)c1cccc(F)c1 [Compound 51] | 10 to 100 | 10 to 100 |
| C[C@@H](NC(=O)c1c[nH]c2ccc(-c3ccc4nc(NC(=O)C5CC5)sc4c3)cc12)c1ccc(F)cc1 [Compound 31] | 100 to 1000 | 100 to 1000 |
| O=C(NCc1ccccc1)c1c[nH]c2ccc(-c3ccc4nc(NC(=O)C5CC5)sc4c3)cc12 [Compound 27] | – | 10 to 100 |

Continued, in another order:

| IC50 (RIPK1) [nM] | Compound | EC50 (HT-29 cells) [nM] |
| --- | --- | --- |
| 10 to 100 | CC(C)C(=O)Nc1nc2cc(-c3ccc4c(c3)c(C(=O)NC(C)c3ccccc3)cn4C)ccn2n1 (stereo not drawn) [Compound 105] | 1 to 10 |
| 100 to 1000 | CC(C)C(=O)Nc1nc2cc(-c3ccc4c(c3)c(C(=O)N[C@H]3CCCc5ccccc53)cn4C)ccn2n1 [Compound 140] | 10 to 100 |
| 10 to 100 | CC(C)C(=O)Nc1nc2cc(-c3ccc4c(c3)c(C(=O)NC(C)c3ccc(F)cc3)cn4C)ccn2n1 (stereo not drawn) [Compound 130] | 1 to 10 |
| 10 to 100 | C[C@H](NC(=O)c1cn(C)c2ccc(-c3ccn4nc(N[C@@H](C)CO)nc4c3)cc12)c1cccc(F)c1 [Compound 196] | < 1 |
| 1 to 10 | C[C@H](NC(=O)c1cn(C)c2ccc(-c3ccn4nc(NC(=O)C5CC5)nc4c3)cc12)c1ccc(F)c(F)c1 [Compound 182] | < 1 |
| 100 to 1000 | COCC(=O)Nc1nc2ccc(-c3ccc4[nH]cc(C(=O)N[C@@H](C)c5cccc(F)c5)c4c3)cn2n1 [Compound 92] | 100 to 1000 |
| 10 to 100 | C[C@H](NC(=O)c1cn(C)c2ccc(-c3ccn4nc(NC(=O)N5CC[C@@H](O)C5)nc4c3)cc12)c1cccc(F)c1 [Compound 162, N-((S)-1-(3-fluorophenyl)ethyl)-5-(2-((R)-3-hydroxypyrrolidine-1-carboxamido)-[1,2,4]triazolo[1,5-a]pyridin-7-yl)-1-methyl-1H-indole-3-carboxamide] | 10 to 100 |
| 10 to 100 | C[C@@H](NC(=O)c1cn(C)c2ccc(-c3ccn4nc(NC(=O)C5CC5)nc4c3)cc12)c1cccc(F)c1 [Compound 156] | < 1 |
| ≥ 1000 | O=C(NCc1ccc(N2CCOCC2)cc1)c1c[nH]c2ccc(-c3ccc4nc(NC(=O)C5CC5)sc4n3)cc12 [Compound 99] | ≥ 1000 |
| 10 to 100 | C[C@H](NC(=O)c1cn(C)c2ccc(-c3ccn4nc(NC(=O)[C@H]5C[C@H]5F)nc4c3)cc12)c1cccc(F)c1 [Compound 143] | < 1 |
| 100 to 1000 | CC(C)C(=O)Nc1nc2cc(-c3ccc4c(c3)c(C(=O)N[C@H](C)c3ccccn3)cn4C)ccn2n1 [Compound 136] | 10 to 100 |
| 10 to 100 | CC(C)C(=O)Nc1nc2cc(-c3ccc4c(c3)c(C(=O)N[C@@H](C)c3cccc(Cl)c3)cn4C)ccn2n1 [Compound 127] | < 1 |
| ≥ 1000 | CC(C)C(=O)Nc1nc2cc(-c3ccc4c(c3)c(C(=O)N[C@H](C)c3cccc(F)c3)cn4C)ccn2n1 [Compound 125] | ≥ 1000 |
| 100 to 1000 | COc1ccc([C@H](C)NC(=O)c2cn(C)c3ccc(-c4ccn5nc(NC(=O)C6CC6)nc5c4)cc23)cc1F [Compound 181] | 100 to 1000 |
| < 1 | Cn1cc(C(=O)N2CCC[C@H]2c2ccc(Cl)cc2)c2cc(-c3ccn4nc(NC(=O)C5CC5)nc4c3)ccc21 [Compound 194] | < 1 |
| 10 to 100 | CC(C)C(=O)Nc1nc2cc(-c3ccc4c(c3)c(C(=O)N[C@@H](C)c3ccncc3)cn4C)ccn2n1 [Compound 175] | 10 to 100 |
| 1 to 10 | Cc1ccc([C@H](C)NC(=O)c2cn(C)c3ccc(-c4ccn5nc(NC(=O)C6CC6)nc5c4)cc23)cc1 [Compound 120] | < 1 |
| 100 to 1000 | Cn1cc(C(=O)N[C@H]2CCCc3ccc(F)cc32)c2cc(-c3ccn4nc(NC(=O)C5CC5)nc4c3)ccc21 [Compound 184] | 100 to 1000 |
| < 1 | C[C@H](NC(=O)c1cn(C)c2ccc(-c3ccn4nc(NC(=O)[C@H]5CCCN5)nc4c3)cc12)c1cccc(F)c1 [Compound 179] | < 1 |
| < 1 | Cn1cc(C(=O)N2CCCC2c2cccc(F)c2)c2cc(-c3ccc4nc(NC(=O)C5CC5)cn4n3)ccc21 (stereo not drawn) [Compound 187] | < 1 |
| 10 to 100 | C[C@H](NC(=O)c1cn(C)c2ccc(-c3ccn4nc(NC(=O)C5CCC(F)(F)CC5)nc4c3)cc12)c1cccc(F)c1 [Compound 147] | 1 to 10 |
| 100 to 1000 | C[C@H](NC(=O)c1cn(C)c2ccc(-c3ccn4nc(NC(=O)N5CC[C@H](O)C5)nc4c3)cc12)c1cccc(F)c1 [Compound 163] | 10 to 100 |
| < 1 | CNC(=O)Nc1nc2cc(-c3ccc4c(c3)c(C(=O)N[C@@H](C)c3cccc(F)c3)cn4C)ccn2n1 [Compound 195] | < 1 |
| 100 to 1000 | CC(C)C(=O)Nc1nc2cc(-c3ccc4c(c3)c(C(=O)N[C@H](C)c3ccc(F)cc3)cn4C)ccn2n1 [Compound 132] | 100 to 1000 |
| 1 to 10 | C[C@H](NC(=O)c1cn(C)c2ccc(-c3ccn4nc(NC(=O)C5CC5)cc4n3)cc12)c1cccc(F)c1 [Compound 108] | 1 to 10 |
| 1 to 10 | C[C@H](NC(=O)c1cn(C)c2ccc(-c3ccn4nc(NC(=O)N5CCCC(O)C5)nc4c3)cc12)c1cccc(F)c1 (stereo partly drawn) [Compound 169] | < 1 |
| 1 to 10 | C[C@H](NC(=O)c1cn(C)c2ccc(-c3ccn4nc(NC(=O)C5CCCO5)nc4c3)cc12)c1cccc(F)c1 (stereo partly drawn) [Compound 161] | < 1 |
| < 1 | C[C@H](NC(=O)c1cn(C)c2ccc(-c3ccc4c(NC(=O)C5CC5)n[nH]c4c3)cc12)c1cccc(F)c1 [Compound 110] | – |
| 100 to 1000 | C[C@H](NC(=O)c1cn(C)c2ccc(-c3ccc4nc(NC(=O)C5CC5)nn4c3)cc12)c1cccc(F)c1 [Compound 90] | – |
